{"source": "patent US8399452B2", "about": "“Dibenzo[b,f][1,4]oxazepin-11-yl-N-hydroxybenzamides as HDAC inhibitors” (Methylgene Inc., priority 2006, dated 2013)"}
{"molecular_target": "histone deacetylase (HDAC Enzyme)", "assay": "Inhibition of Histone Deacetylase Enzymatic Activity (Boc-Lys(Ac)-AMC, Fluor-de-Lys developer)", "format": "biochemical", "conditions": "Table 9; read-out: HDAC Inhibition (IC50 μM) HDAC Enzyme", "experimental": "(§1) The following protocol is used to assay the compounds of the invention.\n(§2) The mixture is pre-incubated for 5 minutes at room temperature. The reaction is started by bringing the temperature to 37° C. and adding 16 μl substrate. Total reaction volume is 50 μl.\n(§3) In the Tables 8, 9 and 10, A≦[…]<B≦0.1 μM; 0.1 μM<C≦1 μM; and 1 μM<D≦10 μM.", "units": {"IC50": "µM"}}
{"smiles": "O=C(NO)c1cnc(N2C[C@@H]3C[C@H]2CN3c2cccc(S(F)(F)(F)(F)F)c2)nc1", "IC50": "< 0.05"}
{"smiles": "O=C(NO)c1cnc(N2C[C@@H]3C[C@H]2CN3c2ccc(Cl)cc2)nc1", "note": "[2-((1S,4S)-5-(4-chlorophenyl)-2,5-diazabicyclo[2.2.1]heptan-2-yl)-N-hydroxypyrimidine-5-carboxamide]", "IC50": "< 0.05"}
{"smiles": "O=C(NO)c1cnc(N2C[C@@H]3C[C@H]2CN3c2ccc(C(F)(F)F)cc2F)nc1", "note": "[2-((1S,4S)-5-(2-fluoro-4-(trifluoromethyl)phenyl)-2,5-diazabicyclo[2.2.1]heptan-2-yl)-N-hydroxypyrimidine-5-carboxamide]", "IC50": "< 0.05"}
{"smiles": "O=C(NO)c1cnc(N2C[C@@H]3C[C@H]2CN3c2cccc(C(F)(F)F)n2)nc1", "note": "[N-hydroxy-2-((1S,4S)-5-(6-(trifluoromethyl)pyridin-2-yl)-2,5-diazabicyclo[2.2.1]heptan-2-yl)pyrimidine-5-carboxamide]", "IC50": "< 0.05"}
{"smiles": "O=C(NO)c1cnc(N2CC3CC(CN(c4cc(C(F)(F)F)ccn4)C3)C2)nc1", "note": "[N-hydroxy-2-(7-(4-(trifluoromethyl)pyridin-2-yl)-3,7-diazabicyclo[3.3.1]nonan-3-yl)pyrimidine-5-carboxamide]", "IC50": "0.1 to 1"}
{"smiles": "O=C(NO)c1cnc(N2C[C@@H]3C[C@H]2CN3c2noc3ccccc23)nc1", "note": "[2-((1S,4S)-5-(benzo[d]isoxazol-3-yl)-2,5-diazabicyclo[2.2.1]heptan-2-yl)-N-hydroxypyrimidine-5-carboxamide]", "IC50": "< 0.05"}
{"smiles": "Cc1cccc(N2C[C@H]3C[C@@H]2CN3c2ccc(C(=O)NO)cc2)c1", "note": "[N-hydroxy-4-((1R,4R)-5-m-tolyl-2,5-diazabicyclo[2.2.1]heptan-2-yl)benzamide]", "IC50": "0.1 to 1"}
{"smiles": "O=C(NO)c1cnc(N2C[C@@H]3C[C@H]2CN3c2ccc3nsnc3c2)nc1", "note": "[2-((1S,4S)-5-(benzo[c][1,2,5]thiadiazol-5-yl)-2,5-diazabicyclo[2.2.1]heptan-2-yl)-N-hydroxypyrimidine-5-carboxamide]", "IC50": "< 0.05"}
{"smiles": "Cc1ccccc1N1C[C@@H]2C[C@H]1CN2c1ncc(C(=O)NO)cn1", "note": "[N-hydroxy-2-((1S,4S)-5-o-tolyl-2,5-diazabicyclo[2.2.1]heptan-2-yl)pyrimidine-5-carboxamide]", "IC50": "0.05 to 0.1"}
{"smiles": "O=C(NO)c1cnc(N2C[C@@H]3C[C@H]2CN3c2ccc3c(c2)OC(F)(F)O3)nc1", "note": "[2-((1S,4S)-5-(2,2-difluorobenzo[d][1,3]dioxol-5-yl)-2,5-diazabicyclo[2.2.1]heptan-2-yl)-N-hydroxypyrimidine-5-carboxamide]", "IC50": "< 0.05"}
{"smiles": "O=C(NO)c1cnc(N2C[C@@H]3C[C@H]2CN3c2cccc(OC(F)F)c2)nc1", "note": "[2-((1S,4S)-5-(3-(difluoromethoxy)phenyl)-2,5-diazabicyclo[2.2.1]heptan-2-yl)-N-hydroxypyrimidine-5-carboxamide]", "IC50": "< 0.05"}
{"molecular_target": "histone deacetylase (HDAC Enzyme)", "assay": "Inhibition of Histone Deacetylase Enzymatic Activity (Boc-Lys(Ac)-AMC, Fluor-de-Lys developer)", "format": "biochemical", "conditions": "Table 10; read-out: HDAC Inhibition (IC50 μM) HDAC Enzyme", "experimental": "as §1, §2, §3", "units": {"IC50": "µM"}}
{"smiles": "O=C(CCCCCON=c1c2ccccc2ccc2ccccc12)NO", "IC50": "0.1 to 1"}
{"smiles": "O=C(CCCCCCN1c2ccccc2C=Cc2ccccc21)NO", "note": "[(Z)-7-(5H-dibenzo[b,f]azepin-5-yl)-N-hydroxyheptanamide]", "IC50": "< 0.05"}
{"smiles": "O=C(CCCCCCN1C(=O)c2ccccc2N(C2CC2)c2ccccc21)NO", "IC50": "0.1 to 1"}
{"smiles": "O=C(NO)c1cnc(N2CCn3c(nnc3-c3ccccc3)C2)nc1", "note": "[N-hydroxy-2-(3-phenyl-5,6-dihydro-[1,2,4]triazolo[4,3-a]pyrazin-7(8H)-yl)pyrimidine-5-carboxamide]", "IC50": "< 0.05"}
{"smiles": "O=C(CCCCCCC(=O)N1Cc2ccccc2Oc2ccccc21)NO", "note": "[8-(dibenzo[b,f][1,4]oxazepin-10(11H)-yl)-N-hydroxy-8-oxooctanamide]", "IC50": "0.1 to 1"}
{"smiles": "O=C(CCCON=C1c2ccccc2CCc2ccccc21)NO", "IC50": "0.1 to 1"}
{"smiles": "O=C(NO)c1ccc(CCCN2C(=O)c3ccccc3Oc3ccccc32)cc1", "note": "[N-hydroxy-4-(3-(11-oxodibenzo[b,f][1,4]oxazepin-10(11H)-yl)propyl)benzamide]", "IC50": "0.05 to 0.1"}
{"smiles": "O=C(Cc1ccc(CN2C(=O)c3ccccc3Oc3ccccc32)cc1)NO", "IC50": "0.1 to 1"}
{"smiles": "O=C(CCc1ccc(CN2C(=O)c3ccccc3Oc3ccccc32)cc1)NO", "note": "[N-hydroxy-3-(4-((11-oxodibenzo[b,f][1,4]oxazepin-10(11H)-yl)methyl)phenyl)propanamide]", "IC50": "0.1 to 1"}
{"smiles": "O=C(CCn1cc(CN2C(=O)c3ccccc3Oc3ccccc32)nn1)NO", "IC50": "0.1 to 1"}
{"smiles": "O=C(NO)c1ccc(N2C(=O)c3ccccc3Oc3ccccc32)cc1", "note": "[N-hydroxy-4-(11-oxodibenzo[b,f][1,4]oxazepin-10(11H)-yl)benzamide]", "IC50": "0.1 to 1"}
{"smiles": "O=C(CCCCCCN1Cc2ccccc2Oc2ccccc21)NO", "note": "[7-(dibenzo[b,f][1,4]oxazepin-10(11H)-yl)-N-hydroxyheptanamide]", "IC50": "0.1 to 1"}
{"smiles": "O=C(NO)c1ccc(CON=C2c3ccccc3CCc3ccccc32)cc1", "IC50": "0.1 to 1"}
{"smiles": "O=C(NO)c1cnc(NC2c3ccccc3C=C(F)c3ccccc32)nc1", "note": "(stereo not shown)", "IC50": "< 0.05"}
{"smiles": "O=C(CCCCCN1C(=O)CN=C(c2ccccc2)c2ccccc21)NO", "note": "[(Z)-N-hydroxy-6-(2-oxo-5-phenyl-2,3-dihydro-1H-benzo[e][1,4]diazepin-1-yl)hexanamide]", "IC50": "0.1 to 1"}
{"molecular_target": "histone deacetylase (HDAC Enzyme)", "assay": "Inhibition of Histone Deacetylase Enzymatic Activity (Boc-Lys(Ac)-AMC, Fluor-de-Lys developer)", "format": "biochemical", "conditions": "read-out: HDAC Inhibtion (IC50 μM) HDAC Enzyme", "experimental": "as §1, §2, §3", "units": {"IC50": "µM"}}
{"smiles": "Cc1ccc2c(c1)Oc1ccccc1N=C2c1ccc(C(=O)NO)cc1", "note": "[(Z)-N-hydroxy-4-(3-methyldibenzo[b,f][1,4]oxazepin-11-yl)benzamide]", "IC50": "< 0.05"}
{"smiles": "O=C(NO)c1ccc(CNC2=Nc3ccccc3Oc3ccccc32)cc1", "note": "[(E)-4-((dibenzo[b,f][1,4]oxazepin-11-ylamino)methyl)-N-hydroxybenzamide]", "IC50": "< 0.05"}
{"smiles": "O=C(NO)c1ccc(C2=Nc3ccccc3N(C3CC3)c3ccccc32)cc1", "note": "[(Z)-4-(5-cyclopropyl-5H-dibenzo[b,e][1,4]diazepin-11-yl)-N-hydroxybenzamide]", "IC50": "0.1 to 1"}
{"smiles": "O=C(NO)c1cccc(C2=Nc3ccccc3Oc3ccccc32)c1", "note": "[(Z)-3-(dibenzo[b,f][1,4]oxazepin-11-yl)-N-hydroxybenzamide]", "IC50": "0.1 to 1"}
{"smiles": "O=C(NO)c1ccc(C2=Nc3ccccc3Oc3c[n+]([O-])ccc32)cc1", "note": "[(Z)-5-(4-(hydroxycarbamoyl)phenyl)benzo[b]pyrido[4,3-f][1,4]oxazepine 2-oxide]", "IC50": "0.1 to 1"}
{"smiles": "COCCN1c2ccccc2N=C(c2ccc(C(=O)NO)cc2)c2ccccc21", "note": "[(Z)-N-hydroxy-4-(5-(2-methoxyethyl)-5H-dibenzo[b,e][1,4]diazepin-11-yl)benzamide]", "IC50": "0.1 to 1"}
{"smiles": "O=C(NO)c1ccc(C2=Nc3cccc(F)c3Oc3ccccc32)cc1", "note": "[(Z)-4-(6-fluorodibenzo[b,f][1,4]oxazepin-11-yl)-N-hydroxybenzamide]", "IC50": "0.05 to 0.1"}
{"smiles": "O=C(NO)c1ccc(C2=Nc3ccccc3N(C3CC3)c3ncccc32)cc1", "note": "[(Z)-4-(11-cyclopropyl-11H-benzo[b]pyrido[2,3-e][1,4]diazepin-5-yl)-N-hydroxybenzamide]", "IC50": "< 0.05"}
{"smiles": "O=C(NO)c1ccc(CNC2=Nc3ccccc3N(C3CC3)c3ccccc32)cc1", "note": "[(E)-4-((5-cyclopropyl-5H-dibenzo[b,e][1,4]diazepin-11-ylamino)methyl)-N-hydroxybenzamide]", "IC50": "0.1 to 1"}
{"smiles": "O=C(NO)c1ccc(C2=Nc3cc(Cl)ccc3Nc3ccccc32)cc1", "note": "[(Z)-4-(8-chloro-5H-dibenzo[b,e][1,4]diazepin-11-yl)-N-hydroxybenzamide]", "IC50": "0.05 to 0.1"}
{"smiles": "COc1ccc2c(c1)Oc1ccccc1N=C2c1ccc(C(=O)NO)cc1", "note": "[(Z)-N-hydroxy-4-(3-methoxydibenzo[b,f][1,4]oxazepin-11-yl)benzamide]", "IC50": "0.1 to 1"}
